Assay [1] concerns zebrafish model of insomnia established by PTZ. Briefly: Evaluation of the efficacy in improving sleep, PTZ zebrafish model of insomnia. It is filed as in vivo. The following applies: 125 μg/mL, 24 h, n = 10. From the text:
In the present application, a state in which zebrafish is in a speed of movement of greater than 20 mm/s is considered to be an awake state, a state in which the speed of movement is less than 4 mm/s is considered to be a sleep state, and a state in which the speed of movement is 4-20 mm/s corresponds to sleep latency.
As used herein, the term “amount of wake after sleep onset” refers to the distance of movements during which the speed of movement is greater than 20 mm/s.
As used herein, the term “time of wake after sleep onset” refers to the time of movements during which the speed of movement is greater than 20 mm/s.
The 5 dpf wild type zebrafish of line AB were randomly selected and placed in a 6-well plate, and for the experimental groups 30 zebrafish were treated in each well. The positive control melatonin was in a concentration of 125 μg/mL. Meanwhile, the normal control group (fed in a conventional manner) and the model control group (i.e., the zebrafish model of insomnia established by PTZ) were set, with a capacity of 3 mL per well. […] The zebrafish were analyzed for amount of wake after sleep onset and time of wake after sleep onset. The bovine spleen peptide powder was evaluated for its efficacy in sleep improvement through statistical analysis results of the above indicators. The statistical results were expressed as “mean±standard deviation”.

Assay [2] relates to zebrafish model of gastrointestinal mucosal injury (TNBS). Put plainly: Evaluation of regulatory efficacy on intestinal goblet cells, TNBS zebrafish model. It is filed as in vivo. Conditions: 15.0 μg/mL, 2 days after TNBS, n = 10. As for the experimental part: The 3 dpf wild type zebrafish of line AB were randomly selected and placed in a 6-well plate, and for the experimental groups 30 zebrafish were treated in each well. Except for the normal control group (fed in a conventional manner), all the other experimental groups were given aqueous TNBS to establish a zebrafish model of gastrointestinal mucosal injury. After a 2-day treatment at 28° C., TNBS was removed, and the bovine spleen peptide powder dissolved in water was given at a concentration as shown in Table 9 below. The positive control prednisone was at a concentration of 15.0 μg/mL. Meanwhile, a normal control group and a model control group (i.e., a zebrafish model of gastrointestinal mucosal injury model established by TNBS) were set, with a capacity of 3 mL per well. After a further 2-day treatment at 28° C., 10 zebrafish from each experimental group were randomly selected and placed under the dissecting microscope for photographing. Data were acquired by the NIS-Elements D 3.20 advanced image processing software. The number of goblet cells in the intestine of zebrafish was analyzed. Statistical results were used to evaluate the regulatory efficacy of the goblet cells in the intestine of the zebrafish. The statistical results were expressed as “mean±standard deviation”.

For the molecule `COc1ccc2[nH]cc(CCNC(C)=O)c2c1` [Melatonin, melatonin], in assay [1], the “Amount of wake after sleep onset (mean ± standard deviation)” value is 346 ± 35.3 mm and the “Time of wake after sleep onset (mean ± standard deviation)” value was 8.18 ± 0.795 s. For `C[C@]12C=CC(=O)C=C1CC[C@@H]1[C@@H]2C(=O)C[C@@]2(C)[C@H]1CC[C@]2(O)C(=O)CO` [Prednisone, prednisone], in assay [2], the “Number of intestinal goblet cells (mean ± standard deviation)” value came out at 47.2 ± 1.89 count.

Source of the values: US12648965B2, “Use of bovine spleen peptide powder in improving sleep, preventing or treating depression, or improving intestinal function” (BEIJING NO. 1 BIO-TECHNOLOGY DEVELOPMENT CO., LTD., priority 2022, dated 2026).
